The record followed here is article PMC11984407, “A natural small molecule isoginkgetin alleviates hypercholesterolemia and atherosclerosis by targeting ACLY” (Theranostics, 2025).

One data set addresses T1, recombinant ACLY protein (Homo sapiens, UniProt P53396).
T1 sequence (P53396 1-1101): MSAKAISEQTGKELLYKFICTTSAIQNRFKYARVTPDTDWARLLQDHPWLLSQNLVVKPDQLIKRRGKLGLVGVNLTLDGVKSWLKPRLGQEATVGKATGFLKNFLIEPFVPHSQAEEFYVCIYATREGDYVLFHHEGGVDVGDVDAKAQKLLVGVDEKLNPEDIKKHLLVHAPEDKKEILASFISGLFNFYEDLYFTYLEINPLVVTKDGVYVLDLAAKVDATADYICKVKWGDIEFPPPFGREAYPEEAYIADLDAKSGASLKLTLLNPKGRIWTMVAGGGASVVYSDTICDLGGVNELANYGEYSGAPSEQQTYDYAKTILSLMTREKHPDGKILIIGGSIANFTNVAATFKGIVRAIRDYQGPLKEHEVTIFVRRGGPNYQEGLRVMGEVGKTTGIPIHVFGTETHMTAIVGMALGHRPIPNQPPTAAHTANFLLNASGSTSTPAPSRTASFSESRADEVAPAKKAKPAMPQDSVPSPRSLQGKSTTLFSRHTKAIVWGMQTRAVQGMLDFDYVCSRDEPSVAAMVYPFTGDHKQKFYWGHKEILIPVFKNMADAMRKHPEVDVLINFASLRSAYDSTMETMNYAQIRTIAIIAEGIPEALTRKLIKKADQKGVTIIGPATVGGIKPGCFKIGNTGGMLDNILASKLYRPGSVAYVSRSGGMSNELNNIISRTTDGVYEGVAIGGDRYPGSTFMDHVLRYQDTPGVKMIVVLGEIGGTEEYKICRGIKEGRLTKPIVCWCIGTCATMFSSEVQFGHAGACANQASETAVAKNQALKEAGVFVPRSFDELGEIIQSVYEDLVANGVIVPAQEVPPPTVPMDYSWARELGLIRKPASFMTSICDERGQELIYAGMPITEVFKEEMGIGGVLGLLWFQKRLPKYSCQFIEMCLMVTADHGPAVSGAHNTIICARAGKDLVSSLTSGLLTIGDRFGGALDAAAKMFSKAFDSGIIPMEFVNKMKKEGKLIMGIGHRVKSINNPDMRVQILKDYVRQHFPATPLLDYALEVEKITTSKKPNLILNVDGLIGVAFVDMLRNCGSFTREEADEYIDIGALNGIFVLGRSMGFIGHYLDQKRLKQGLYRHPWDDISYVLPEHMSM
As to the kind of experiment: ACLY activity assay in vitro (cell-free ADP-Glo assay). The class given is biochemical. Particulars: read-out: ACLY enzyme activity IC50. Here is the method:
ACLY activity was assessed in a cell-free system using an ADP-Glo dependent assay, as previously described. Briefly, the reaction was conducted in a 384-well plate containing 2 µL of substrate (5 mmol/L ATP, 30 mmol/L citrate, 15 mmol/L CoA) in kinase buffer (40 mmol/L Tris base, 10 mmol/L MgCl2, 5 mmol/L DTT). The reaction was initiated by adding 20 nmol/L recombinant human ACLY protein and various concentrations of the compounds, followed by incubation for 30 min at 37 °C. During the reaction, ACLY converted ATP to ADP. ADP levels, which reflect ACLY activity, were quantified using the ADP-Glo assay kit (V9102, Promega, Madison, USA) in accordance with the manufacturer's instructions. The enzymatic activity curve was analyzed using the log (inhibitor) versus normalized response-variable slope function in GraphPad Prism.

The nature of data set [1]: Pharmacokinetics study in ICR mice. It counts as in vivo, mouse. On the procedure:
Pharmacokinetic properties were investigated using ICR mice weighing between 18 and 22 grams. Six mice were assigned into two groups, with three in each group. ISOGK was administered via intragastric and tail vein injections. For both the intravenous and intragastric administration groups, cheek blood samples of approximately 0.05 mL were collected at 5 min, 15 min, 30 min, 1 h, 2 h, 4 h, 6 h, 8 h, and 24 h post-administration. The plasma concentration of compound in the mice was measured using the LC-MS/MS technique. Pharmacokinetic parameters were then analyzed using WinNonlin software.

The test system of a further data set is HepG2 cell line. Description: CCK8 cell viability, HepG2. Particulars: concentrations below 7.5 μmol/L, 12 h. It counts as cell-based. Here is the method: The cellular viability was assessed by conducting CCK8 assays in primary hepatocytes from C57BL/6J mouse and HepG2 cell line. Specifically, 2,000 cells per well were plated in 96-well plates and cultured with different concentrations of ISOGK for 12 h. Following this, cell absorption was quantified using a CCK8 kit (CA1210, Solarbio, Beijing, China), adhering strictly to the manufacturer's guidelines. The presented data represents the findings from three independent experiments, with each experiment consisting of four replicates.

In data set [2] the test system is primary mouse hepatocytes. Description: Nile Red staining of primary hepatocytes from high fat diet mice. It counts as cell-based. Particulars: varying concentrations, 12 h, hepatocytes from 16-week high fat diet mice. The source says: Primary hepatocytes were isolated from male C57BL/6J mice fed a high-fat diet (HFD, 60 kcal% fat, 20 kcal% protein, 20 kcal% carbohydrate; D12492; RESEARCH DIETS, New Brunswick, NJ, USA) for 16 weeks according to our previous study. At the end of experiment, the mice were initially anaesthetized and subsequently subjected to perfusion with Liver Perfusion Medium (17701-038; Thermo Fisher Scientific, Waltham, MA, USA) via the portal vein, followed by Liver Digestion Medium (17701-034, Thermo Fisher Scientific, Waltham, MA, USA). Following perfusion, the liver was extracted and passed through a 100 μm cell strainer. The resulting cells were subjected to centrifugation at 50×g for 1 min, after which cells were incubated in DMEM supplemented with 10% FBS (F05-001-B160216; Bio-One Biotechnology, Guangzhou, China) and 1% penicillin-streptomycin (15140-122; Gibco by Invitrogen, Carlsbad, CA, USA) at 37 °C.
For the Nile Red staining procedure, primary mouse hepatocytes were treated with IOSGK at varying concentrations for a period of 12 h. Subsequently, the cells were fixed with 4% paraformaldehyde (PFA) and stained with Nile Red (N1142, Invitrogen, Carlsbad, CA, USA). The intracellular accumulation of lipids was visualized and quantified using a laser scanning confocal microscope (TCS SP8; Leica, Wetzlar, Germany).

For the molecule `COc1ccc(-c2cc(=O)c3c(O)cc(O)c(-c4cc(-c5cc(=O)c6c(O)cc(O)cc6o5)ccc4OC)c3o2)cc1` [ISOGK, Isoginkgetin], on recombinant ACLY protein, the IC50 is 5.46 ± 1.11 µM. In data set [1] (intravenous 5 mg/kg), this molecule displayed a peak plasma concentration of 710 ng/mL. Besides, the Tmax in data set [1] (mouse, plasma, intravenous 5 mg/kg, read-out: time of peak plasma concentration (converted)) was 5 min. For the same molecule, the “plasma levels after oral administration” value in data set [1] (oral 20 mg/kg) was “almost undetectable”. Further, in data set [1] (oral 20 mg/kg vs intravenous 5 mg/kg), the oral bioavailability result is recorded as “low oral bioavailability”. Also, in the data set with HepG2 cell line, the “cytotoxicity (CCK-8)” value was “no significant cytotoxicity”. Moreover, in data set [2], the “hepatic lipid levels (Nile Red staining)” value is on record as “reduced hepatic lipid levels”.
